According to PubChem BioAssay AID256 (DTP/NCI, 2004):
Toxic doses and inconclusive results are not listed. The calls were made as follows: active = survival T/C of 150% or more; inactive = T/C below 125% in these data.

Test system: CD2F1 mice, L1210 leukemia ip, survival T/C
Test: NCI In Vivo Anticancer Drug Screen. Data for tumor model L1210 Leukemia (intraperitoneal) in CD2F1 (CDF1) mice
Details: higher = longer survival
Procedure, shortened: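 In this screen, transplantable tumors were grown in mice given either the compound or its vehicle. Results were expressed as the treated measurement relative to the control measurement.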

[1] = endpoint: mean survival time, dose: 100.0 mg/kg/injection, schedule: Q04DX003 (ip), vehicle: saline with Tween-80
[2] = endpoint: mean survival time, dose: 200.0 mg/kg/injection, schedule: Q04DX003 (ip), vehicle: saline with Tween-80
[3] = endpoint: mean survival time, dose: 400.0 mg/kg/injection, schedule: Q04DX003 (ip), vehicle: saline with Tween-80
[4] = endpoint: mean survival time, dose: 12.5 mg/kg/injection, schedule: Q01DX009 (ip), vehicle: other
[5] = endpoint: mean survival time, dose: 25.0 mg/kg/injection, schedule: Q01DX009 (ip), vehicle: other
[6] = endpoint: mean survival time, dose: 50.0 mg/kg/injection, schedule: Q01DX009 (ip), vehicle: water
[7] = endpoint: mean survival time, dose: 100.0 mg/kg/injection, schedule: Q01DX001 (ip), vehicle: saline
[8] = endpoint: mean survival time, dose: 200.0 mg/kg/injection, schedule: Q01DX001 (ip), vehicle: saline
[9] = endpoint: mean survival time, dose: 400.0 mg/kg/injection, schedule: Q01DX001 (ip), vehicle: saline
[10] = endpoint: mean survival time, dose: 50.0 mg/kg/injection, schedule: Q01DX009 (ip), vehicle: saline with Tween-80
[11] = endpoint: mean survival time, dose: 100.0 mg/kg/injection, schedule: Q01DX009 (ip), vehicle: saline with Tween-80
[12] = endpoint: mean survival time, dose: 200.0 mg/kg/injection, schedule: Q01DX009 (ip), vehicle: saline with Tween-80

Measured: T/C

O=C(C[n+]1ccc2ccccc2c1)c1ccc(Br)cc1
inactive: endpoint: mean survival time, dose: 12.5 mg/kg/injection, schedule: Q04DX003 (ip), vehicle: saline 98 % of control | endpoint: mean survival time, dose: 25.0 mg/kg/injection, schedule: Q01DX009 (ip), vehicle: saline 98 % of control | endpoint: mean survival time, dose: 25.0 mg/kg/injection, schedule: Q04DX003 (ip), vehicle: saline 98 % of control | endpoint: mean survival time, dose: 50.0 mg/kg/injection, schedule: Q01DX009 (ip), vehicle: saline 102 % of control | endpoint: mean survival time, dose: 50.0 mg/kg/injection, schedule: Q04DX003 (ip), vehicle: saline 101 % of control | endpoint: mean survival time, dose: 100.0 mg/kg/injection, schedule: Q04DX003 (ip), vehicle: saline 97 % of control

C[N+]12CCC34C5=CC(=O)C(=O)C=C5[N+]5(C)C(=O)CC6OCC=C(C1)C(CC32)C6C45 (stereo not given)
inactive: endpoint: mean survival time, dose: 75.0 mg/kg/injection, schedule: Q01DX001 (ip), vehicle: saline 106 % of control

CCOC(=O)c1ccc(NC(=O)C(Br)C(Br)C(=O)O)cc1 (stereo not given)
inactive: endpoint: mean survival time, dose: 100.0 mg/kg/injection, schedule: Q01DX001 (ip), vehicle: saline with Tween-80 110 % of control | endpoint: mean survival time, dose: 200.0 mg/kg/injection, schedule: Q01DX001 (ip), vehicle: saline with Tween-80 110 % of control | endpoint: mean survival time, dose: 400.0 mg/kg/injection, schedule: Q01DX001 (ip), vehicle: saline with Tween-80 108 % of control

O=c1[nH]c(SCc2ccccc2)nc(Cc2ccccc2)c1CCO
inactive: [1] 95 % of control | [2] 94 % of control | [3] 90 % of control

COc1ccc2nc3cc(Cl)ccc3c(Nc3ccc(NS(C)(=O)=O)cc3)c2n1
inactive: [4] 96 % of control | [5] 104 % of control | endpoint: mean survival time, dose: 50.0 mg/kg/injection, schedule: Q01DX009 (ip), vehicle: other 96 % of control | endpoint: mean survival time, dose: 100.0 mg/kg/injection, schedule: Q01DX009 (ip), vehicle: other 94 % of control

CCOC(=O)C(C(C)=O)C(C)C (stereo not given)
inactive: endpoint: mean survival time, dose: 25.0 mg/kg/injection, schedule: Q01DX009 (ip), vehicle: water 95 % of control | [6] 102 % of control | endpoint: mean survival time, dose: 100.0 mg/kg/injection, schedule: Q01DX009 (ip), vehicle: water 102 % of control | endpoint: mean survival time, dose: 200.0 mg/kg/injection, schedule: Q01DX009 (ip), vehicle: water 97 % of control | endpoint: mean survival time, dose: 400.0 mg/kg/injection, schedule: Q01DX009 (ip), vehicle: water 97 % of control

COC1OC(CO)C(O)C(OC)C1OC (stereo not given) (tested in a mixture with another compound)
inactive: [7] 100 % of control | [8] 100 % of control | [9] 100 % of control

O=C(CBr)N1c2ccccc2Sc2ccc(C(F)(F)F)cc21
inactive: endpoint: mean survival time, dose: 1.56 mg/kg/injection, schedule: Q01DX009 (ip), vehicle: other 100 % of control | endpoint: mean survival time, dose: 3.13 mg/kg/injection, schedule: Q01DX009 (ip), vehicle: other 97 % of control | endpoint: mean survival time, dose: 6.25 mg/kg/injection, schedule: Q01DX009 (ip), vehicle: other 102 % of control | [4] 96 % of control | [5] 102 % of control

CC1=C(C)CC([P+](c2ccccc2)(c2ccccc2)c2ccccc2)CC1 (stereo not given)
inactive: endpoint: mean survival time, dose: 6.25 mg/kg/injection, schedule: Q01DX001 (ip), vehicle: saline with Tween-80 98 % of control | endpoint: mean survival time, dose: 12.5 mg/kg/injection, schedule: Q01DX001 (ip), vehicle: saline with Tween-80 90 % of control | endpoint: mean survival time, dose: 25.0 mg/kg/injection, schedule: Q01DX001 (ip), vehicle: saline with Tween-80 94 % of control

Cn1c(=O)cc(O)c2ccccc21
inactive: [1] 101 % of control | [2] 97 % of control | [3] 97 % of control

CC(C)C1OCC(C)(C)C(c2ccccc2)O1 (stereo not given)
inactive: endpoint: mean survival time, dose: 50.0 mg/kg/injection, schedule: Q04DX002 (ip), vehicle: saline 93 % of control | endpoint: mean survival time, dose: 100.0 mg/kg/injection, schedule: Q04DX002 (ip), vehicle: saline 96 % of control | endpoint: mean survival time, dose: 200.0 mg/kg/injection, schedule: Q04DX002 (ip), vehicle: saline 110 % of control

COC1=CC=C2[C@@H]3Cc4ccc(OC)c5c4[C@]2(CCN3CCO)C1O5 (stereo not given in full)
inactive: endpoint: mean survival time, dose: 25.0 mg/kg/injection, schedule: Q04DX003 (ip), vehicle: DMSO 94 % of control | endpoint: mean survival time, dose: 50.0 mg/kg/injection, schedule: Q04DX003 (ip), vehicle: DMSO 96 % of control | endpoint: mean survival time, dose: 100.0 mg/kg/injection, schedule: Q04DX003 (ip), vehicle: DMSO 94 % of control | endpoint: mean survival time, dose: 200.0 mg/kg/injection, schedule: Q04DX003 (ip), vehicle: DMSO 91 % of control | endpoint: mean survival time, dose: 400.0 mg/kg/injection, schedule: Q04DX003 (ip), vehicle: DMSO 105 % of control

N=C(Oc1ccccc1)C(Cl)(Cl)Cl
inactive: [10] 90 % of control | [11] 95 % of control | [12] 98 % of control

c1ccc(CCc2ccnc3ccccc23)cc1
inactive: [10] 94 % of control | [11] 98 % of control | [12] 100 % of control

O=c1oc(-c2cc([N+](=O)[O-])ccc2Cl)nc2ccccc12
inactive: [10] 95 % of control | [11] 90 % of control | [12] 95 % of control

CC1=Nc2ccccc2N=C(C)C1
inactive: endpoint: mean survival time, dose: 50.0 mg/kg/injection, schedule: Q01DX009 (ip), vehicle: acetone 101 % of control | endpoint: mean survival time, dose: 100.0 mg/kg/injection, schedule: Q01DX009 (ip), vehicle: acetone 98 % of control

CC(C)[C@](O)(C(=O)OCC1=CC[N+]2([O-])CC[C@@H](O)[C@@H]12)[C@H](C)O (stereo not given in full)
inactive: [6] 116 % of control | endpoint: mean survival time, dose: 750.0 mg/kg/injection, schedule: Q01DX001 (ip), vehicle: saline 96 % of control | endpoint: mean survival time, dose: 1000.0 mg/kg/injection, schedule: Q01DX001 (ip), vehicle: saline 101 % of control | endpoint: mean survival time, dose: 1250.0 mg/kg/injection, schedule: Q01DX001 (ip), vehicle: saline 97 % of control | endpoint: mean survival time, dose: 1500.0 mg/kg/injection, schedule: Q01DX001 (ip), vehicle: saline 105 % of control | endpoint: mean survival time, dose: 2000.0 mg/kg/injection, schedule: Q01DX001 (ip), vehicle: saline 117 % of control | endpoint: mean survival time, dose: 3000.0 mg/kg/injection, schedule: Q01DX001 (ip), vehicle: saline 115 % of control

OCC1OCOC2COCOC12 (stereo not given)
inactive: [1] 95 % of control | [2] 98 % of control | [3] 101 % of control

O=S(=O)(N=C1C(Cl)=C(Cl)C(=NS(=O)(=O)c2ccccc2)C(Cl)=C1Cl)c1ccccc1
inactive: endpoint: mean survival time, dose: 100.0 mg/kg/injection, schedule: Q04DX003 (ip), vehicle: Klucel (hydroxypropylcellulose) (HPC) 97 % of control | endpoint: mean survival time, dose: 200.0 mg/kg/injection, schedule: Q04DX003 (ip), vehicle: Klucel (hydroxypropylcellulose) (HPC) 95 % of control | endpoint: mean survival time, dose: 400.0 mg/kg/injection, schedule: Q04DX003 (ip), vehicle: Klucel (hydroxypropylcellulose) (HPC) 93 % of control

CC1(COCCOCC2(C)CO2)CO1 (stereo not given)
inactive: endpoint: mean survival time, dose: 100.0 mg/kg/injection, schedule: Q01DX009 (ip), vehicle: saline 111 % of control | endpoint: mean survival time, dose: 200.0 mg/kg/injection, schedule: Q01DX009 (ip), vehicle: saline 114 % of control | endpoint: mean survival time, dose: 264.0 mg/kg/injection, schedule: Q04DX003 (ip), vehicle: saline 116 % of control | endpoint: mean survival time, dose: 400.0 mg/kg/injection, schedule: Q04DX003 (ip), vehicle: saline 113 % of control | endpoint: mean survival time, dose: 600.0 mg/kg/injection, schedule: Q04DX003 (ip), vehicle: saline 121 % of control

CCC(=O)OCC[N+](C)(C)C
inactive: [7] 100 % of control | [8] 96 % of control | [9] 96 % of control

O=C1OC(c2ccccc2)c2ccccc21 (stereo not given)
inactive: [11] 95 % of control | [12] 100 % of control | endpoint: mean survival time, dose: 400.0 mg/kg/injection, schedule: Q01DX009 (ip), vehicle: saline with Tween-80 92 % of control

CC(=O)NC(CC(C)C)C(=O)O.CC(=O)NC(CC(C)C)C(=O)O.[NH-]C1CCCCC1[NH-].[Pt+2] (stereo not given)
inactive: endpoint: median survival time, dose: 3.12 mg/kg/injection, schedule: Q04DX003 (ip), vehicle: saline 97 % of control | endpoint: median survival time, dose: 6.25 mg/kg/injection, schedule: Q04DX003 (ip), vehicle: saline 100 % of control | endpoint: median survival time, dose: 12.5 mg/kg/injection, schedule: Q04DX003 (ip), vehicle: saline 97 % of control | endpoint: median survival time, dose: 25.0 mg/kg/injection, schedule: Q04DX003 (ip), vehicle: saline 100 % of control | endpoint: median survival time, dose: 50.0 mg/kg/injection, schedule: Q04DX003 (ip), vehicle: saline 104 % of control | endpoint: median survival time, dose: 100.0 mg/kg/injection, schedule: Q04DX003 (ip), vehicle: saline 105 % of control | endpoint: median survival time, dose: 200.0 mg/kg/injection, schedule: Q04DX003 (ip), vehicle: saline 108 % of control

COc1ccc(C(=O)C2(O)Oc3ccccc3C2=O)cc1 (stereo not given)
inactive: endpoint: mean survival time, dose: 50.0 mg/kg/injection, schedule: Q01DX001 (ip), vehicle: saline 98 % of control | [7] 98 % of control | [8] 98 % of control | [9] 117 % of control
